Test results as given in BindingDB's records for doi:10.7270/Q2TX3CTT (Broad Institute, 2010).

Biological target: Glycogen synthase kinase-3 beta (Homo sapiens, UniProt P49841)
Test: GSK3beta kinase inhibitor potency, dose response, biochemical, luminescence, cell-free homogeneous, retest (AID 434954)

Chain of Glycogen synthase kinase-3 beta (P49841 whole entry): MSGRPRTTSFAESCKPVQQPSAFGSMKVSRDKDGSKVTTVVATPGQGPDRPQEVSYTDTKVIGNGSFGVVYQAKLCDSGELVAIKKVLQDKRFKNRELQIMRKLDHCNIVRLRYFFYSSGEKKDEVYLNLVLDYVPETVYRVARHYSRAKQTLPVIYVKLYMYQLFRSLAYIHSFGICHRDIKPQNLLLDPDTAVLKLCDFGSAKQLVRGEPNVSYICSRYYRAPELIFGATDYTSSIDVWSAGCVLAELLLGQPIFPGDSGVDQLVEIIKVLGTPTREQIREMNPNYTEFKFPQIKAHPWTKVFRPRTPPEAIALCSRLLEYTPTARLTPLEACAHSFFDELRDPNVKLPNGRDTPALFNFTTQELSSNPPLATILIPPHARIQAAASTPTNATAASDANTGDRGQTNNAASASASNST

EC50 [µM]	Compound
> 300	O=C1Nc2ccccc2C1=NN1CCOCC1 [3-(morpholin-4-ylamino)indol-2-one]
> 300	O=C(c1noc2c1CCc1ccccc1-2)N1CCOCC1 [3-(morpholin-4-ylcarbonyl)-4,5-dihydronaphtho[2,1-d]isoxazole]
28	C[C@@H]1O[C@@H](OC[C@H]2O[C@@H](Oc3c(-c4ccc(O)c(O)c4)oc4cc(O)cc(O)c4c3=O)[C@H](O)[C@@H](O)[C@@H]2O)[C@H](O)[C@H](O)[C@H]1O [3-Rhamnoglucosylquercetin]
> 300	CC(c1ccccc1)n1c(CCCO)nc2ccccc21 (stereo unspecified) [3-[1-(1-Phenyl-ethyl)-1H-benzoimidazol-2-yl]-propan-1-ol]
> 300	COc1ccc(C(C)N2CC34C=CC(O3)C(C(=O)O)C4C2=O)cc1 (stereo unspecified) [3-[1-(4-Methoxy-phenyl)-ethyl]-4-oxo-10-oxa-3-aza-tricyclo[5.2.1.0*1,5*]dec-8-ene-6-carboxylic acid]
> 300	O=C(CCC1CCN(C(=O)c2cc(C(F)(F)F)ccc2Cl)CC1)NC1CC1 [3-[1-[2-chloro-5-(trifluoromethyl)benzoyl]piperidin-4-yl]-N-cyclopropylpropanamide]
> 300	COc1cccc2cc(CC(=O)c3ccc(C)cc3C)c(=O)oc12 [3-[2-(2,4-dimethylphenyl)-2-oxoethyl]-8-methoxychromen-2-one]
> 300	COc1cccc2cc(C(=O)CS(=O)(=O)c3ccc(Cl)cc3)c(=O)oc12 [3-[2-(4-chlorophenyl)sulfonylethanoyl]-8-methoxy-chromen-2-one]
> 300	CN1CCN(C(=O)Cn2ncc3c([nH]c4ccccc43)c2=O)CC1 [3-[2-(4-methylpiperazin-1-yl)-2-oxidanylidene-ethyl]-2H-pyridazino[4,5-b]indol-4-one]
> 300	COc1cccc2cc(C(=O)CS(=O)(=O)c3ccc(C(C)(C)C)cc3)c(=O)oc12 [3-[2-(4-tert-butylphenyl)sulfonyl-1-oxoethyl]-8-methoxy-1-benzopyran-2-one]
> 300	COc1ccc2cc(C(=O)CS(=O)(=O)c3ccccc3)c(=O)oc2c1 [3-[2-(benzenesulfonyl)acetyl]-7-methoxychromen-2-one]
> 300	O=C(CS(=O)(=O)c1ccccc1)c1cc2ccccc2oc1=O [3-[2-(phenylsulfonyl)ethanoyl]chromen-2-one]
> 300	Cc1ccc(C)c(N2CCN(C(=O)Cn3ncc4c([nH]c5ccc(C)cc54)c3=O)CC2)c1 [3-[2-[4-(2,5-dimethylphenyl)piperazin-1-yl]-2-oxidanylidene-ethyl]-8-methyl-2H-pyridazino[4,5-b]indol-4-one]
> 300	COc1ccc(-c2nn(CCC#N)cc2CN=O)cc1OC [3-[3-(3,4-dimethoxyphenyl)-4-(hydroxyiminomethyl)pyrazol-1-yl]propanenitrile]
> 300	O=C(O)CCn1cc(/C=C\C(=O)c2ccc(Cl)cc2)c(-c2cccc(Br)c2)n1 [3-[3-(3-bromophenyl)-4-[(Z)-3-(4-chlorophenyl)-3-oxoprop-1-enyl]pyrazol-1-yl]propanoic acid]
> 300	NC(=S)NN=Cc1cn(CCC(=O)O)nc1-c1cccc(Br)c1 [3-[3-(3-bromophenyl)-4-[(carbamothioylhydrazinylidene)methyl]-1-pyrazolyl]propanoic acid]
> 300	O=Cc1cn(CCC(=O)O)nc1-c1cccc(Br)c1 [3-[3-(3-bromophenyl)-4-formylpyrazol-1-yl]propanoic acid]
> 300	CCOC(=O)/C(C#N)=C/c1cn(CCC(=O)O)nc1-c1cccc(Cl)c1 [3-[3-(3-chlorophenyl)-4-[(E)-2-cyano-3-ethoxy-3-oxidanylidene-prop-1-enyl]pyrazol-1-yl]propanoic acid]
> 300	COc1ccc(-c2cc(C(F)(F)F)nc(SCCC(=O)N3CCOCC3)n2)cc1 [3-[4-(4-methoxyphenyl)-6-(trifluoromethyl)pyrimidin-2-yl]sulfanyl-1-morpholin-4-ylpropan-1-one]
50.1	N#CCCn1cc(CN=O)c(-c2cccc([N+](=O)[O-])c2)n1 [3-[4-(hydroxyiminomethyl)-3-(3-nitrophenyl)pyrazol-1-yl]propanenitrile]
> 300	N#CCCn1cc(CN=O)c(-c2ccc(-c3ccccc3)cc2)n1 [3-[4-(hydroxyiminomethyl)-3-(4-phenylphenyl)pyrazol-1-yl]propanenitrile]
> 300	COc1ccc(-c2nn(CCC(=O)O)cc2/C=C/C(=O)O)cc1[N+](=O)[O-] [3-[4-[(E)-2-carboxyethenyl]-3-(4-methoxy-3-nitrophenyl)pyrazol-1-yl]propanoic acid]
> 300	CCOC(=O)/C(C#N)=C/c1cn(CCC(=O)O)nc1-c1ccccc1 [3-[4-[(E)-2-cyano-3-ethoxy-3-oxoprop-1-enyl]-3-phenyl-1-pyrazolyl]propanoic acid]
> 300	COc1ccc(-c2nn(CCC(=O)O)cc2C=NNC(N)=S)cc1 [3-[4-[(carbamothioylhydrazinylidene)methyl]-3-(4-methoxyphenyl)-1-pyrazolyl]propanoic acid]
> 300	CC1(C)CC(=O)C=C(Nc2cccc(Cl)c2Cl)C1 [3-[(2,3-dichlorophenyl)amino]-5,5-dimethylcyclohex-2-en-1-one]
> 300	CCn1c(SCc2c(F)cccc2Cl)nnc1-c1ccco1 [3-[(2-chloro-6-fluorophenyl)methylsulfanyl]-4-ethyl-5-(furan-2-yl)-1,2,4-triazole]

EC50 [µM]	Compound
> 300	CC1(C)CC(=O)C=C(Nc2ccccc2O)C1 [3-[(2-hydroxyphenyl)amino]-5,5-dimethyl-cyclohex-2-en-1-one]
> 300	C[C@@H]1O[C@@H](Oc2c(-c3cc(O)c(O)c(O)c3)oc3cc(O)cc(=O)c-3c2O)[C@H](O)[C@H](O)[C@H]1O [3-[(2S,3R,4R,5R,6S)-6-methyl-3,4,5-tris(oxidanyl)oxan-2-yl]oxy-5,7-bis(oxidanyl)-2-[3,4,5-tris(oxidanyl)phenyl]chromen-4-one]
> 300	C=CCNC(=O)c1onc(CSc2cccc(OC)c2)c1C(=O)NCC=C [3-[(3-methoxyphenyl)sulfanylmethyl]-N4,N5-bis(prop-2-enyl)-1,2-oxazole-4,5-dicarboxamide]
> 300	Cc1ccc(CSc2ccc(-c3cccs3)nn2)cc1 [3-[(4-methylphenyl)methylsulfanyl]-6-thiophen-2-ylpyridazine]
> 300	CC1(C)CC(=O)C=C(Nc2ccc(Br)cn2)C1 [3-[(5-bromopyridin-2-yl)amino]-5,5-dimethylcyclohex-2-en-1-one]
> 300	COC(=O)c1sccc1NC(=O)c1ccc(Br)s1 [3-[(5-bromothiophene-2-carbonyl)amino]thiophene-2-carboxylic acid methyl ester]
> 300	O=C(O)CCN1C(=O)/C(=C\c2ccc(-c3nc4ccccc4s3)o2)SC1=S [3-[(5E)-5-[[5-(1,3-benzothiazol-2-yl)-2-furanyl]methylidene]-4-oxo-2-sulfanylidene-3-thiazolidinyl]propanoic acid]
> 300	C=CCn1cc(/C=C/c2cc[n+](C)cc2)c2ccccc21 [3-[(E)-2-(1-methylpyridin-1-ium-4-yl)ethenyl]-1-prop-2-enyl-indole;iodide]
> 300	Cc1ncc(C=C2C(=O)Nc3ccccc32)[nH]1 [3-[(Z)-(2-methyl-1H-imidazol-4-yl)methylidene]-1H-indol-2-one]
14.3	O=C1OCCC1Sc1nnc(-c2ccc(O)cc2)o1 (stereo unspecified) [3-[[2-(4-oxo-1-cyclohexa-2,5-dienylidene)-3H-1,3,4-oxadiazol-5-yl]thio]-2-oxolanone]
> 300	COc1cccc(-n2c(Cn3nc(C(F)F)cc3C(F)F)n[nH]c2=S)c1 [3-[[3,5-bis(difluoromethyl)-1-pyrazolyl]methyl]-4-(3-methoxyphenyl)-1H-1,2,4-triazole-5-thione]
0.0779	OCCCNc1nccc(-c2cc(Nc3cccc(Cl)c3)ncn2)n1 [3-[[4-[6-[(3-chlorophenyl)amino]pyrimidin-4-yl]pyrimidin-2-yl]amino]propan-1-ol]
2.74	COc1ccc(OC)c(Nc2nc(NCCCN(C)C)nc(N)c2[N+](=O)[O-])c1 [3-[[4-amino-6-(2,5-dimethoxyanilino)-5-nitro-pyrimidin-2-yl]amino]propyl-dimethyl-amine]
> 300	COc1ccc(C2C(C(C)=O)C(=O)C(=O)N2c2nccs2)c(OC)c1 (stereo unspecified) [3-acetyl-2-(2,4-dimethoxyphenyl)-4-hydroxy-1-(1,3-thiazol-2-yl)-2H-pyrrol-5-one]
> 300	COc1cccc2cc(C(C)=O)c(=O)oc12 [3-acetyl-8-methoxy-2H-chromen-2-one]
> 300	Nn1c(-c2cccs2)nc2sc3c(c2c1=O)CCCC3 [3-azanyl-2-thiophen-2-yl-5,6,7,8-tetrahydro-[1]benzothiolo[2,3-d]pyrimidin-4-one]
> 300	c1ccc(Cn2c(-c3ccco3)nc3nc4ccccc4nc32)cc1 [3-benzyl-2-(furan-2-yl)imidazo[4,5-b]quinoxaline]
> 300	O=NCc1ccc(OCc2ccccc2)c(Cl)c1 [3-chloro-4-phenylmethoxybenzaldehyde oxime]
> 300	Clc1ccc2c(c1)Nc1ccccc1CC2 [3-chloro-10,11-dihydro-5H-dibenzo[b,f]azepine]
> 300	Cc1cc2cc(CN(CCCN3CCOCC3)C(=O)NC3CCCCC3)c(=O)[nH]c2cc1C [3-cyclohexyl-1-[(6,7-dimethyl-2-oxo-1H-quinolin-3-yl)methyl]-1-(3-morpholin-4-ylpropyl)urea]
> 300	CCOc1cccc(C(=O)Nc2cccc(-c3nc4ncccc4o3)c2C)c1 [3-ethoxy-N-[2-methyl-3-([1,3]oxazolo[4,5-b]pyridin-2-yl)phenyl]benzamide]
> 300	Cc1ccc2cc(NC(=O)c3cccc(F)c3)ccc2n1 [3-fluoro-N-(2-methyl-6-quinolinyl)benzamide]
> 300	COc1cccc(C2c3c([nH]n(-c4ccccc4)c3=O)N=C3CCCC(=O)C32)c1 (stereo unspecified) [3-hydroxy-4-(3-methoxyphenyl)-2-phenyl-2,4,6,7,8,9-hexahydro-5H-pyrazolo[3,4-b]quinolin-5-one]
> 300	O=c1oc2cc(O)ccc2c2c1CCCC2 [3-hydroxy-7,8,9,10-tetrahydro-6H-benzo[c]chromen-6-one]
> 300	Cc1ccc(S(=O)(=O)NNC(=O)c2cccc(O)c2)cc1 [3-hydroxy-N'-(4-methylphenyl)sulfonylbenzohydrazide]
